Assay results reported in patent US20050096297A1, “Antibacterial agents” (priority 2003, published 2005).
Converted amounts (≈) assume the structure as drawn.

Tests used:
Assay in all cases: Test A antibacterial assay, MIC by microtitration
Type in all cases: cell-based
E. coli EC-2549 = settings: Escherichia coli, EC2549; Gram Negative Bacteria; strain EC-2549; read-out: Minimum Inhibitory Concentrations E. coli EC-2549
Protocol: (§1) Test A—Antibacterial Assays
(§2) The compounds of the present invention were tested against an assortment of Gram-negative and Gram-positive organisms using standard microtitration techniques (Cohen et. al., Antimicrob., 1985;28:766; Heifetz, et. al., Antimicrob., 1974;6:124).

H. influenzae HI-3542 = settings: Haemophilus influenzae, HI3542; Gram Negative Bacteria; strain HI-3542; read-out: Minimum Inhibitory Concentrations H. influenzae HI-3542
Protocol: as §1, §2

M. catarrhalis BC-3531 = settings: Moraxella catarrhalis, BC3531; Gram Negative Bacteria; strain BC-3531; read-out: Minimum Inhibitory Concentrations M. catarrhalis BC-3531
Protocol: as §1, §2

E. faecalis MGH-2 = settings: Enterococcus faecalis, MGH2; Gram Positive Bacteria; strain MGH-2; read-out: Minimum Inhibitory Concentrations E. faecalis MGH-2
Protocol: as §1, §2

S pyogenes C203 = settings: Gram Positive Bacteria; strain C203; read-out: Minimum Inhibitory Concentrations S pyogenes C203
Protocol: as §1, §2

S. aureus UC-76 = settings: Staphylococcus aureus, UC76; Gram Positive Bacteria; strain UC-76; read-out: Minimum Inhibitory Concentrations S. aureus UC-76
Protocol: as §1, §2

MIC (E. coli EC-2549) [µg/mL]	MIC (H. influenzae HI-3542) [µg/mL]	MIC (M. catarrhalis BC-3531) [µg/mL]	MIC (E. faecalis MGH-2) [µg/mL]	MIC (S pyogenes C203) [µg/mL]	MIC (S. aureus UC-76) [µg/mL]	SMILES
0.002 (≈ 0.00509 µM)	0.03 (≈ 0.0764 µM)	0.03 (≈ 0.0764 µM)	–	–	–	O=C(O)c1cn(C2CC2)c2c(Cl)c(N3CC(O)(C4CC4)C3)c(F)cc2c1=O [drawing 132]
–	–	–	0.5 (≈ 1.27 µM)	0.5 (≈ 1.27 µM)	0.03 (≈ 0.0764 µM)	O=C(O)c1cn(C2CC2)c2c(Cl)c(N3CC(O)(C4CC4)C3)c(F)cc2c1=O [drawing 135]
0.002 (≈ 0.00555 µM)	0.008 (≈ 0.0222 µM)	0.015 (≈ 0.0416 µM)	–	–	–	Cc1c(N2CC(CCO)C2)c(F)cc2c(=O)c(C(=O)O)cn(C3CC3)c12 [drawing 130]
–	–	–	0.25 (≈ 0.694 µM)	0.25 (≈ 0.694 µM)	0.03 (≈ 0.0832 µM)	Cc1c(N2CC(CCO)C2)c(F)cc2c(=O)c(C(=O)O)cn(C3CC3)c12 [drawing 133]
0.0004 (≈ 0.000999 µM)	0.03 (≈ 0.0749 µM)	0.06 (≈ 0.15 µM)	–	–	–	Cc1c(N2CC(O)(C(F)(F)F)C2)c(F)cc2c(=O)c(C(=O)O)cn(C3CC3)c12
